Experimental data as given in patent US8399484B2, “Combination therapy for treating HCV infection” (priority 2008, dated 2013).
Where a name gives a salt, the structure may show the parent alone. Read-outs that look alike come from different tables or passages of the source.

Legend:
[1] = system: chronic HCV genotype-1 infection; details: for VL rebound during treatment in the first 14 days of monotherapy: all dose groups
Description: (§1) The solvent was also used as the placebo.
A multiple rising dose study evaluated safety and antiviral activity in treatment-naive patients (pts) with chronic HCV genotype-1 infection as monotherapy for 14 days followed by triple combination therapy with P+R for an additional 14 days.
Plasma HCV-RNA levels were measured with Roche COBAS® TaqMan® assay (LLOQ 25 IU/m L). After day 28, at the discretion of the investigator, patients could continue to receive standard of care treatment, i.e., P+R.

[2] = system: chronic hepatitis C genotype-1 infection; details: for Virologic rebound during the first 28 days of treatment: 240 mg qd + PegIFN/RBV
Description: as §1
A multiple rising dose study evaluated the safety and antiviral activity in P+R treatment-experienced patients (pts) with chronic hepatitis C genotype-1 infection for 28 days as combination therapy with P+R.
All patients were monitored for safety and tolerability of study drugs. The primary endpoint was a ≧2 log 10 reduction in HCV viral load (VL) from baseline at any time up to Day 28. Plasma HCV-RNA levels were measured using the Roche COBAS® TaqMan® assay (LLOQ 25 IU/mL). The treatment experienced patients in this study included P+R null responders and partial responders. After day 28, at the discretion of the investigator, patients could continue to receive standard of care treatment, i.e., P+R.

[3] = system: D168 variants (genotype 1b NS3); test: Drug sensitivity assay: HCV replicon shuttle vector with patient NS3 amplicons, luciferase, Huh-7.5 cells; format: cell-based; details: Hepatitis C virus, Huh7.5, read-out: EC50 values
Text: (§2) A bicistronic HCV replicon shuttle vector (pIT2) comprising a luciferase reporter gene and an adapted Con-1 NS3/NS5B region was modified to create two unique restriction sites (Mlu I and Spe I) at NS3 codons 11 and 225 which enabled the insertion of compatible NS3 amplicons isolated from HCV-infected patient plasma samples. The first-round PCR product synthesized from the patient plasma-purified RNA (also used for generating fragments for population- and clonal-based sequencing) was used to amplify a 0.65 kbp fragment with primer pairs that respectively contain the unique MluI and SpeI restriction sites for insertion into the shuttle vector. Amplicons were ligated in the pIT2 shuttle vector and reconstituted plasmid DNA was used to generate HCV subgenomic replicon RNA transcripts (T7 RIBOMAX™ kit, Promega). […] At the end of the incubation, luciferase activity was measured with the BRIGHT-GLO™ substrate as the luminescence quantified (CPS) in each well of the culture plate reflected the amount of HCV RNA replication. […] The EC50 of mutant NS3 were compared to the baseline EC50 and used to generate fold-change values.

[4] = system: R155K variants (genotype 1a NS3); test: as above; format: cell-based; details: Hepatitis C virus, Huh7.5, read-out: range of EC50 values
Text: as §2

C=C[C@@H]1C[C@]1(NC(=O)[C@@H]1C[C@H](Oc2cc(-c3csc(NC(=O)C(C)C)n3)nc3c(Br)c(OC)ccc23)CN1C(=O)[C@@H](NC(=O)OC1CCCC1)C(C)(C)C)C(=O)O [Compound (1) sodium salt]
VL rebound during treatment in the first 14 days of monotherapy [1]: majority of patients
VL rebound during treatment in the first 14 days of monotherapy ([1]; listed as Compound (1) (sodium salt)): majority of the patients
VL decline achieved during the monotherapy period ([1]; all pts on active except 1 pt in the 20 mg cohort): > 2 log 10
Discontinuation of treatment due to adverse events ([1]; during monotherapy): No pts discontinued
Time of maximal decline of VL after starting treatment ([1]; monotherapy, typical): 2 to 4 days
Virologic rebound during the first 28 days of treatment (patients) ([2]; 48 mg qd + PegIFN/RBV): 2/6
Virologic rebound during the first 28 days of treatment (patients) ([2]; 120 mg qd + PegIFN/RBV): 1/7
pts with VL<25 IU/mL at Day 28 ([2]; 240 mg qd + P+R): ⅚
Virologic rebound during the first 28 days of treatment [2]: no rebound
Virologic rebound during the first 28 days of treatment ([2]; listed as BI 201335): No rebound
VL decline achieved with triple combination therapy ([2]; all pts, + P+R): > 2 log 10
Discontinuation of treatment due to an AE ([2]; combination with P+R, AE anxiety): One subject discontinued
VL at next visit, Day 42 ([2]; sixth pt of the 240 mg qd cohort): < 25 IU/ml
